Results published in US11390617B2, “Methods of treating non-Hodgkin lymphoma using 2-(2,6-dioxopiperidin-3-yl)-4-((2-fluoro-4-((3-morpholinoazetidin-1-yl)methyl)benzyl)amino)isoindoline-1,3-dione” (Celgene Corporation, priority 2019, dated 2022).

Assays:
Oci-Ly10 Parental = experiment: Viability/apoptosis flow cytometry assay, DLBCL cell lines with acquired resistance to doxorubicin and parental lines; assay type: cell-based; conditions: 120 hours
Experimental: (§1) The following exemplary anti-proliferative assay uses exemplary DLBCL cell lines with acquired resistance to doxorubicin (Table 7). The in vitro growth inhibitory activity of Compound described herein was evaluated using a 384-well flow cytometry assay. The activity of Compound 1 was also evaluated in cell lines with acquired resistance to doxorubicin (one of the curative agents in the DLBCL standard of care regimen R-CHOP [rituximab, cyclophosphamide, doxorubicin, vincristine, and prednisone]) (Table 7).
(§2) The cell lines in Table 7 were plated in 96-well flat bottom plates and assessed with increasing concentrations of compound ranging from 0.0015 to 10 μM or dimethyl sulfoxide (DMSO) control. The final concentration of DMSO was 0.1% (v/v). Following the addition of Compound 1 or DMSO and incubation for 120 hours, cell number and cell death were analyzed by flow cytometry (Attune®, Thermo Fisher) using Annexin V and the vital dye, 7-AAD. Phosphatidylserine translocates from the inner layer to the outer layer of the cell membrane early in apoptosis and Annexin V binds to the exposed phosphatidylserine found on the surface of an apoptotic cell. The dye 7-AAD is excluded by intact live cells and only stains cells that have died as a result of apoptosis or necrosis.
(§3) Flow cytometry data analysis was then performed using the Flow Jo_v10 software to determine the number of viable cells (Annexin V and 7-AAD double negative staining cells) and percentage of apoptotic cells (Annexin V positive cells) for each condition. The live cell count for every concentration was normalized to the DMSO control (considered as 100%) to calculate the percentage of viable cells remaining after treatment and graphed using GraphPad Prism 7.03. The IC50 (50% inhibitory concentration) and Emax (maximum efficacy eliminating tumor cells achieved) values were then calculated by performing nonlinear regression curve fitting using log(inhibitor) vs. normalized response—variable slope analysis on GraphPad Prism 7.03. Area under the curve (AUC) was calculated by performing area under curve analysis on GraphPad Prism 7.03. Similarly, for apoptosis analysis, the percentage of apoptosis combining both “early” (Annexin V positive and 7-AAD negative) and “late” apoptosis (Annexin V and 7-AAD positive) cell gates relative to DMSO was graphed using GraphPad Prism 7.03. The AUC, EC50 (concentration of Compound 1 that produces half-maximal apoptosis response) and Ymax (maximal percentage of apoptosis achieved) values from apoptosis curves were calculated by performing area under curve analysis and nonlinear regression curve fitting using log(agonist) vs. normalized response—Variable slope analysis on GraphPad Prism 7.03.
(§4) In Table 8, dose-response proliferation curves for the cell lines with acquired resistance to doxorubicin and non-linear curve-fit regression were used to determine IC50, AUC, and Emax for % viable cells (Emax for viability varies between 100 at low doses and 0 at high doses, which corresponds to inhibition of all viable cells), and dose-response apoptosis curves were used to determine the EC50, AUC, and Ymax for % apoptosis (Ymax for apoptosis varies from 0 at low doses and 100 at higher doses which corresponds to death of all cells). Tumor cells were exposed to serial dilutions (0.00015 to 10 μM) of Compound 1 or dimethyl sulfoxide (DMSO) control for 5 days. Viability and apoptosis for all cell lines was determined by Annexin V/7-aminoactinomycin D (7-AAD) flow cytometry.

SUDHL4 DoxoR = experiment: as above; assay type: cell-based
Experimental: as §1, §2, §3, §4

U2932 Parental = experiment: as above; assay type: cell-based; conditions: 120 hours
Experimental: as §1, §2, §3, §4

WSU-DLCL2 DoxoR = experiment: as above; assay type: cell-based
Experimental: as §1, §2, §3, §4

[1] = system: lymphoma cell lines WSU-DLCL2, SU-DHL6 and RL; experiment: Macrophage mediated phagocytosis (ADCP) with rituximab; assay type: cell-based; conditions: macrophages treated with Compound 1 10 nM 48 hours, 3 hours
Experimental: Monocyte-derived macrophages (MDM) were generated by plating 8×10^6 commercial monocytes isolated from PBMC in RPMI media supplemented with 10% FBS, 1% L-glutamine and 60 ng/mL macrophage colony-stimulating factor (M-CSF) during 6 to 7 days. Then, MDM were treated with Compound 1 (10 nM) or DMSO control and cultured for an additional 48 hours prior to the assay. Lymphoma cell lines WSU-DLCL2, SU-DHL6 and RL were stained with CellTrace CFSE at 200 nM in PBS for 5 minutes at room temperature and added to the MDM cultures. At the time of co-culture, rituximab or isotype control were added to the media and cells were incubated at 37° C. during 3 hours. At the end of culture, cells were stained with anti-CD14 APC and images were acquired in Operetta. Phagocytosis index was calculated as cells positive for CFSE (green) and CD14 (red).

[2] = system: OCI-LY10-Luc CNS DLBCL xenograft; experiment: OCI-LY10-Luc CNS lymphoma xenograft model (intracranial); assay type: in vivo, Nude (nu/nu) mice; conditions: for % BLI Inhibition on Day 26 / Median Survival: 3 weeks; for % BLI Inhibition on Day 26: relative to vehicle control; for Median Survival: vehicle 35 days
Experimental: Antitumor activity of Compound 1 was evaluated as a single agent in OCI-LY10-luc diffuse large B-cell lymphoma (DLBCL) xenografted intracranially into nude mice as a model for central nervous system (CNS) lymphoma.
CNS lymphoma study was conducted with OCI-LY-10 cells transfected with luciferase (OCI-LY-10-Luc). Nude (nu/nu) mice were inoculated intracranially into the right cerebral hemisphere of the brain with OCI-LY10-Luc cells. Following inoculation of animals, the tumors were allowed to grow for 5 days. On day 5 following tumor cell inoculation, the mice were imaged using IVIS100 imaging system. The mice having tumors with an average flux ranging between 1×10^7 and 2×10^7 photons/sec were pooled together and randomized into various treatment groups. Compound 1 was formulated in 0.5% Methyl Cellulose, 0.25% Tween 80 and 50 mM Citrate pH 3 (MCT) in water. The animals were orally administered vehicle (MCT) or Compound 1 once daily (QD) for 3 weeks. Doses of Compound 1 ranged between 3 and 30 mg/kg. The positive control pomalidomide (30 mg/kg, QD) formulated in aqueous 0.5% CMC and 0.25% Tween-80 was administered PO. The animals were imaged for bioluminescence once a week using IVIS100 imaging system and monitored for survival. Statistical analysis was performed using a log-rank test between Compound 1-treated and vehicle-treated control groups.

[3] = Homo sapiens, read-out: IC50 (% Viable Cells)

In the case of `O=C1CC[C@H](N2C(=O)c3cccc(NCc4ccc(CN5CC(N6CCOCC6)C5)cc4F)c3C2=O)C(=O)N1` [Compound 1, (S)-2-(2,6-dioxopiperidin-3-yl)-4-((2-fluoro-4-((3-morpholinoazetidin-1-yl)methyl)benzyl)amino)isoindoline-1,3-dione], the “AUC (% Viable Cells)” value (Oci-Ly10 Parental) is reported as 285.5, the “AUC (Apoptosis)” value (Oci-Ly10 Parental) is reported as 13 and the “Emax (% Viable Cells)” value (Oci-Ly10 Parental) is reported as 52%. For the same compound, the “Ymax (Apoptosis)” value (Oci-Ly10 Parental) was 10.12%, the EC50 (Oci-Ly10 Parental; Homo sapiens) was 810 nM and the IC50 (Oci-Ly10 Parental; [3]) was 200 nM. For the same compound, the “AUC (% Viable Cells)” value (SUDHL4 DoxoR; 120 hours) was 182.4, the “AUC (Apoptosis)” value (SUDHL4 DoxoR; 120 hours) was 84 and the “Emax (% Viable Cells)” value (SUDHL4 DoxoR; 120 hours) was 7.5%. The “Ymax (Apoptosis)” value (SUDHL4 DoxoR; 120 hours) was 63.5%, the EC50 (SUDHL4 DoxoR; Homo sapiens, SU-DHL-4, 120 hours) was 400 nM and the IC50 (SUDHL4 DoxoR; Homo sapiens, SU-DHL-4, 120 hours, read-out: IC50 (% Viable Cells)) was 72 nM. The “AUC (% Viable Cells)” value (U2932 Parental) was 193, the “AUC (Apoptosis)” value (U2932 Parental) was 45.5 and the “Emax (% Viable Cells)” value (U2932 Parental) was 28.4%. The “Ymax (Apoptosis)” value (U2932 Parental) was 30%, the EC50 (U2932 Parental; Homo sapiens) was 440 nM and the IC50 (U2932 Parental; [3]) was 30 nM. The “AUC (% Viable Cells)” value (WSU-DLCL2 DoxoR; 120 hours) was 195.9, the “AUC (Apoptosis)” value (WSU-DLCL2 DoxoR; 120 hours) was 74.4 and the “Emax (% Viable Cells)” value (WSU-DLCL2 DoxoR; 120 hours) was 8.4%. The “Ymax (Apoptosis)” value (WSU-DLCL2 DoxoR; 120 hours) was 57%, the EC50 (WSU-DLCL2 DoxoR; Homo sapiens, WSUDLCL2, 120 hours) was 400 nM and the IC50 (WSU-DLCL2 DoxoR; Homo sapiens, WSUDLCL2, 120 hours, read-out: IC50 (% Viable Cells)) was 70 nM. The “phagocytosis of lymphoma cell lines mediated by macrophages (ADCP)” value [1] was “enhances phagocytosis of lymphoma cell lines mediated by macrophages”, the “% BLI Inhibition on Day 26” value ([2]; 3 mg/kg QD oral) was 97.2% and the “Median Survival” value ([2]; 3 mg/kg QD oral) was 61 days. For the same compound, the “% BLI Inhibition on Day 26” value ([2]; 10 mg/kg QD oral) was 99.1%, the “Median Survival” value ([2]; 10 mg/kg QD oral) was 69 days and the “animals survived with no detectable bioluminescence signal” value ([2]; 10 mg/kg, day 120 (2/9)) was 22.2%. For the same compound, the “% BLI Inhibition on Day 26” value ([2]; 30 mg/kg QD oral) was 99.5%, the “Median Survival” value ([2]; 30 mg/kg QD oral) was 97 days and the “animals survived with no detectable bioluminescence signal” value ([2]; 30 mg/kg, day 120 (3/9)) was 33.3%.
